The text below walks through data of US11155557B2, “Pyrazolopyrimidine compounds and methods of use thereof” (Genentech, Inc., priority 2016, dated 2021).

Read-outs that look alike come from different tables or passages of the source.

The target in experiment [1] is isolated recombinant JAK1 kinase domain (Homo sapiens (Human), UniProt P23458). Put plainly: JAK1 enzyme assay (Caliper LabChip, Ki). In kind it is biochemical. On the procedure: The activity of the isolated recombinant JAK1 and JAK2 kinase domain was measured by monitoring phosphorylation of a peptide derived from JAK3 ([…] fluorescently labeled on the N-terminus with 5-carboxyfluorescein) using the Caliper LabChip R technology (Caliper Life Sciences, Hopkinton, Mass.).
Chain of isolated recombinant JAK1 kinase domain (P23458 875-1153): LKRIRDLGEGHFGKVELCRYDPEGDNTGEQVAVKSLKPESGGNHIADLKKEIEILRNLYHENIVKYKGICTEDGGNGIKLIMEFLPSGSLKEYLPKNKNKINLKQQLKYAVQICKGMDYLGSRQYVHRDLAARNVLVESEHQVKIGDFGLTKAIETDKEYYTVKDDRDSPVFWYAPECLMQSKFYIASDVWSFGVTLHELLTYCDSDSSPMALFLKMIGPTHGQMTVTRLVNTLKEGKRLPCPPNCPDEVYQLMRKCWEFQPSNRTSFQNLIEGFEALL

Experiment [2] addresses isolated recombinant JAK2 kinase domain (Homo sapiens (Human), UniProt O60674). Put plainly: JAK2 enzyme assay (Caliper LabChip, Ki). The following applies: read-out: JAK2 Ki.
Experiment [3] has as its system JAK1-dependent STAT6 phosphorylation in BEAS-2B human bronchial epithelial cells. The experiment can be described thus: JAK1 pathway assay: IL-13 stimulated STAT6 phosphorylation in BEAS-2B cells. Conditions: BEAS-2B cells, IL-13 stimulation, read-out: IL-13 p-STAT6 BEAS-2B IC50. In kind it is cell-based. On the procedure: JAK1 Pathway Assay in Cell Lines was Carried Out as Follows:
Inhibitor potency (EC50) was determined in cell-based assays designed to measure JAK1 dependent STAT phosphorylation.
In one assay approach, TF-1 human erythroleukemia cells obtained from the American Type Culture Collection (ATCC; Manassas, Va.) were used to measure JAK1-dependent STAT6 phosphorylation downstream of IL-13 stimulation. Prior to use in the assays, TF-1 cells were starved of GM-CSF overnight in OptiMEM medium (Life Technologies, Grand Island, N.Y.) supplemented with 0.5% charcoal/dextran stripped fetal bovine serum (FBS), 0.1 mM non-essential amino acids (NEAA), and 1 mM sodium pyruvate. The assays were run in 384-well plates in serum-free OptiMEM medium using 300,000 cells per well. In a second assay approach, BEAS-2B human bronchial epithelial cells obtained from ATCC were plated at 100,000 cells per well of a 96-well plate one day prior to the experiment. The BEAS-2B assay was run in complete growth medium (bronchial epithelial basal medium plus bulletkit; Lonza; Basel, Switzerland).
Test compounds were serially diluted 1:2 in DMSO and then diluted 1:50 in medium just before use. Diluted compounds were added to the cells, for a final DMSO concentration of 0.2%, and incubated for 30 min (for the TF-1 assay) or 1 hr (for the BEAS-2B assay) at 37° C. Then, cells were stimulated with human recombinant cytokine at their respective EC90 concentrations, as previously determined for each individual lot. Cells were stimulated with IL-13 (R&D Systems, Minneapolis, Minn.) for 15 min at 37° C. […] The resultant samples were frozen in the plates at −80° C. Compound mediated inhibition of STAT6 phosphorylation was measured in the cell lysates using MesoScale Discovery (MSD) technology (Gaithersburg, Md.).

Chain of isolated recombinant JAK2 kinase domain (O60674 849-1124): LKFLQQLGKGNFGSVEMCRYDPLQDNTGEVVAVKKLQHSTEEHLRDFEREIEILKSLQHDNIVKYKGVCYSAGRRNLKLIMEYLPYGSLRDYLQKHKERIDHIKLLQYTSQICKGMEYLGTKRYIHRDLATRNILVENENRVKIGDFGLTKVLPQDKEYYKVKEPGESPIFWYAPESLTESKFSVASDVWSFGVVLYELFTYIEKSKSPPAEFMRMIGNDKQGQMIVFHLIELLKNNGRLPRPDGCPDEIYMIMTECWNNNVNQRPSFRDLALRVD

In general, Ki refers to the equilibrium dissociation constant of an inhibitor or competing ligand from its target. For orientation: IC50 means the midpoint of a concentration-inhibition curve. For `CC1CNc2cc(OC(F)F)c(-c3nn(CC(=O)N4CC=CCC4)cc3NC(=O)c3cnn4cccnc34)cc2S1` (single isomer, unassigned) [Example 103, N-[3-[6-(difluoromethoxy)-2-methyl-3,4-dihydro-2H-1,4-benzothiazin-7-yl]-1-[2-(3,6-dihydro-2H-pyridin-1-yl)-2-oxo-ethyl]pyrazol-4-yl]pyrazolo[1,5-a]pyrimidine-3-carboxamide], the Ki in experiment [1] was 0.2 nM; in experiment [2] it was 0.14 nM. The IC50 in experiment [3] (Homo sapiens, BEAS-2B) was found to be 12 nM.

For the molecule `CC1CNc2cc(OC(F)F)c(-c3nn(CC(=O)N4CC=CCC4)cc3NC(=O)c3cnn4cccnc34)cc2S1` (single isomer, unassigned) [Example 104, N-[3-[6-(difluoromethoxy)-2-methyl-3,4-dihydro-2H-1,4-benzothiazin-7-yl]-1-[2-(3,6-dihydro-2H-pyridin-1-yl)-2-oxo-ethyl]pyrazol-4-yl]pyrazolo[1,5-a]pyrimidine-3-carboxamide], the Ki stood at 0.15 nM in experiment [1] and 0.16 nM in experiment [2]. Also, the half-maximal inhibitory concentration (IC50) in experiment [3] was 11 nM.

Regarding `CC1CNc2cc(OC(F)F)c(-c3nn(CC(=O)N(C)C)cc3NC(=O)c3cnn4cccnc34)cc2S1` (single isomer, unassigned) [Example 105, N-[3-[6-(difluoromethoxy)-2-methyl-3,4-dihydro-2H-1,4-benzothiazin-7-yl]-1-[2-(dimethylamino)-2-oxo-ethyl]pyrazol-4-yl]pyrazolo[1,5-a]pyrimidine-3-carboxamide], the Ki in experiment [1] was 0.19 nM; in experiment [2], 0.13 nM. For the same molecule, the IC50 in experiment [3] (Homo sapiens, BEAS-2B) came to 24 nM.

In the case of `CC1CNc2cc(OC(F)F)c(-c3nn(CC(=O)N(C)C)cc3NC(=O)c3cnn4cccnc34)cc2S1` (single isomer, unassigned) [Example 106, N-[3-[6-(difluoromethoxy)-2-methyl-3,4-dihydro-2H-1,4-benzothiazin-7-yl]-1-[2-(dimethylamino)-2-oxo-ethyl]pyrazol-4-yl]pyrazolo[1,5-a]pyrimidine-3-carboxamide], the Ki in experiment [1] was 0.17 nM; in experiment [2], 0.19 nM. Also, the IC50 in experiment [3] is 27 nM.

For `CC1CSc2cc(-c3nn(CC(=O)N4CCCCC4)cc3NC(=O)c3cnn4cccnc34)c(OC(F)F)cc2N1` (single isomer, unassigned) [Example 107, N-[3-[6-(difluoromethoxy)-3-methyl-3,4-dihydro-2H-1,4-benzothiazin-7-yl]-1-[2-oxo-2-(1-piperidyl)ethyl]pyrazol-4-yl]pyrazolo[1,5-a]pyrimidine-3-carboxamide], the Ki in experiment [1] is 0.2 nM; in experiment [2] it was 0.23 nM. In experiment [3] (Homo sapiens, BEAS-2B), the IC50 came to 11 nM.

In the case of `CC1CSc2cc(-c3nn(CC(=O)N4CCCCC4)cc3NC(=O)c3cnn4cccnc34)c(OC(F)F)cc2N1` (single isomer, unassigned) [Example 108, N-[3-[6-(difluoromethoxy)-3-methyl-3,4-dihydro-2H-1,4-benzothiazin-7-yl]-1-[2-oxo-2-(1-piperidyl)ethyl]pyrazol-4-yl]pyrazolo[1,5-a]pyrimidine-3-carboxamide], the Ki in experiment [1] is 0.19 nM; in experiment [2], 0.23 nM. Also, the 50% inhibitory concentration (IC50) in experiment [3] was found to be 12 nM.

As for `CC1CSc2cc(-c3nn(CC(=O)N4CC=CCC4)cc3NC(=O)c3cnn4cccnc34)c(OC(F)F)cc2N1` (single isomer, unassigned) [Example 111, N-[3-[6-(difluoromethoxy)-3-methyl-3,4-dihydro-2H-1,4-benzothiazin-7-yl]-1-[2-(3,6-dihydro-2H-pyridin-1-yl)-2-oxo-ethyl]pyrazol-4-yl]pyrazolo[1,5-a]pyrimidine-3-carboxamide], the Ki in experiment [1] worked out at 0.2 nM; in experiment [2], 0.21 nM. Further, the IC50 in experiment [3] (Homo sapiens, BEAS-2B) was found to be 15 nM.

On to `CC1CSc2cc(-c3nn(CC(=O)N4CC=CCC4)cc3NC(=O)c3cnn4cccnc34)c(OC(F)F)cc2N1` (single isomer, unassigned) [Example 112, N-[3-[6-(difluoromethoxy)-3-methyl-3,4-dihydro-2H-1,4-benzothiazin-7-yl]-1-[2-(3,6-dihydro-2H-pyridin-1-yl)-2-oxo-ethyl]pyrazol-4-yl]pyrazolo[1,5-a]pyrimidine-3-carboxamide], for which the results for the Ki in experiment [1] and in experiment [2] were 0.15 nM and 0.18 nM, respectively. Further, in experiment [3], the IC50 was 10 nM.

Turning to `CC1CSc2cc(-c3nn(CC(=O)N(C)C)cc3NC(=O)c3cnn4cccnc34)c(OC(F)F)cc2N1` (single isomer, unassigned) [Example 113, N-[3-[6-(difluoromethoxy)-3-methyl-3,4-dihydro-2H-1,4-benzothiazin-7-yl]-1-[2-(dimethylamino)-2-oxo-ethyl]pyrazol-4-yl]pyrazolo[1,5-a]pyrimidine-3-carboxamide], the values for the inhibition constant (Ki) in experiment [1] and in experiment [2] were 0.22 nM and 0.27 nM, respectively. For the same molecule, the IC50 in experiment [3] (Homo sapiens, BEAS-2B) was found to be 22 nM.

Consider `CC1CSc2cc(-c3nn(CC(=O)N(C)C)cc3NC(=O)c3cnn4cccnc34)c(OC(F)F)cc2N1` (single isomer, unassigned) [Example 114, N-[3-[6-(difluoromethoxy)-3-methyl-3,4-dihydro-2H-1,4-benzothiazin-7-yl]-1-[2-(dimethylamino)-2-oxo-ethyl]pyrazol-4-yl]pyrazolo[1,5-a]pyrimidine-3-carboxamide], for which the Ki in experiment [1] stood at 0.21 nM; in experiment [2], 0.24 nM. The IC50 in experiment [3] was 15 nM.

`CN1CCC(n2cc(NC(=O)c3cnn4cccnc34)c(-c3cc4c(cc3OC(F)F)NCCS4)n2)C1=O` (single isomer, unassigned) [Example 125, N-[3-[6-(difluoromethoxy)-3,4-dihydro-2H-1,4-benzothiazin-7-yl]-1-(1-methyl-2-oxo-pyrrolidin-3-yl)pyrazol-4-yl]pyrazolo[1,5-a]pyrimidine-3-carboxamide]: the results for the Ki in experiment [1] and in experiment [2] were 0.15 nM and 0.11 nM, respectively. The IC50 in experiment [3] stood at 81 nM.

`CN1CCC(n2cc(NC(=O)c3cnn4cccnc34)c(-c3cc4c(cc3OC(F)F)NCCS4)n2)C1=O` (single isomer, unassigned) [Example 126, N-[3-[6-(difluoromethoxy)-3,4-dihydro-2H-1,4-benzothiazin-7-yl]-1-(1-methyl-2-oxo-pyrrolidin-3-yl)pyrazol-4-yl]pyrazolo[1,5-a]pyrimidine-3-carboxamide]: the Ki came out at 0.88 nM in experiment [1] and 0.43 nM in experiment [2]. Moreover, the IC50 in experiment [3] is 286 nM.

`O=C(Nc1cn(C2CCOC2=O)nc1-c1cc2c(cc1OC(F)F)NCCS2)c1cnn2cccnc12` (single isomer, unassigned) [Example 141, N-[3-[6-(difluoromethoxy)-3,4-dihydro-2H-1,4-benzothiazin-7-yl]-1-(2-oxotetrahydrofuran-3-yl)pyrazol-4-yl]pyrazolo[1,5-a]pyrimidine-3-carboxamide]: the Ki turned out to be 0.17 nM in experiment [1] and 0.09 nM in experiment [2]. Besides, the IC50 in experiment [3] (Homo sapiens, BEAS-2B) is 11 nM.

Take `O=C(Nc1cn(C2CCOC2=O)nc1-c1cc2c(cc1OC(F)F)NCCS2)c1cnn2cccnc12` (single isomer, unassigned) [Example 142, N-[3-[6-(difluoromethoxy)-3,4-dihydro-2H-1,4-benzothiazin-7-yl]-1-(2-oxotetrahydrofuran-3-yl)pyrazol-4-yl]pyrazolo[1,5-a]pyrimidine-3-carboxamide]: the Ki in experiment [1] was 0.09 nM; in experiment [2], 0.06 nM. In experiment [3], the IC50 was found to be 15 nM.

As to `O=C(Nc1cn(C2CCOC2=O)nc1-c1cc2c(cc1OC(F)F)NCCO2)c1cnn2cccnc12` (single isomer, unassigned) [Example 145, N-[3-[6-(difluoromethoxy)-3,4-dihydro-2H-1,4-benzoxazin-7-yl]-1-(2-oxotetrahydrofuran-3-yl)pyrazol-4-yl]pyrazolo[1,5-a]pyrimidine-3-carboxamide], the Ki is 0.6 nM in experiment [1] and 0.42 nM in experiment [2]. Also, the IC50 in experiment [3] was 36 nM.

As to `O=C(Nc1cn(C2CCOC2=O)nc1-c1cc2c(cc1OC(F)F)NCCO2)c1cnn2cccnc12` (single isomer, unassigned) [Example 146, N-[3-[6-(difluoromethoxy)-3,4-dihydro-2H-1,4-benzoxazin-7-yl]-1-(2-oxotetrahydrofuran-3-yl)pyrazol-4-yl]pyrazolo[1,5-a]pyrimidine-3-carboxamide; formic acid], the Ki in experiment [1] (formic acid) worked out at 0.32 nM; in experiment [2] (formic acid), 0.29 nM. Further, in experiment [3] (formic acid), the IC50 was 74 nM.
